Laboratory results from patent publication US20260048036A1, “CRYSTALLINE FORMS OF A GLUCOSYLCERAMIDE SYNTHASE INHIBITOR AND USES THEREOF” (ACELINK THERAPEUTICS, INC., priority 2022, published 2026).
“And” between values parts separate entries of the source, which are not always exact repeats. Equal values may be shown once.

Molecular target: T1, Glucosylceramide synthase (GCS) (Rattus norvegicus, UniProt Q9R0E0)
T1 construct: The MDCK, K-562, and L6 cell lines all endogenously express GCS enzyme; host or cells: L6 rat skeletal muscle cell lysate
T1 sequence (Q9R0E0 1-394): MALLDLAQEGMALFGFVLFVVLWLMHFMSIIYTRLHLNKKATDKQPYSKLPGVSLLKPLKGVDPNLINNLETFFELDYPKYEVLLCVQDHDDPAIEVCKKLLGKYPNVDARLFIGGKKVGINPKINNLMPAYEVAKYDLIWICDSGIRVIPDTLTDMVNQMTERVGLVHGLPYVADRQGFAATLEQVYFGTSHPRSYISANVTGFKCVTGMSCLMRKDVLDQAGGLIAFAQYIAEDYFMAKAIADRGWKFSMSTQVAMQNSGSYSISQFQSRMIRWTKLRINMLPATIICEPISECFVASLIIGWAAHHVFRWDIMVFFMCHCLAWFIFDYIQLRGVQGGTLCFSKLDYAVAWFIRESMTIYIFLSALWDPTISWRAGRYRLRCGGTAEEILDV
Assay: GCS enzymatic assay with L6 cell lysate
Format: biochemical
Details: 0.1 μM, N = 1, N = 2
Source text: In this study, the inventors developed a reliable method to monitor GCS catalytic activity using the fluorescent substrate, C6-NBD-ceramide. The reaction product, C6-NBD-glucosylceramide, could then be detected and quantified by LC-MS/MS. The inventors used this method to test and validate the effect of various GCS inhibitors on GCS enzyme activity from different species.
The MDCK, K-562, and L6 cell lines all endogenously express GCS enzyme and were used to test the effect of various GCS inhibitors on enzyme originating from different species. The GCS enzyme activity was detected by using the fluorescent substrate, C6-NBD-ceramide, and monitoring the formation of the fluorescent reaction product, C6-NBD-glucosylceramide. First, the inventors used cell lysate derived from a canine kidney cell line (MDCK, ATCC Cat #CCL-34™) as the source of GCS and tested the inhibitory activity of several control and test compounds. The inventors then used the human leukemia K-562 cell line (ATCC Cat #[…]) to test the effect of these GCS inhibitors on intact living cells. Finally, a cell lysate derived from a rat skeletal muscle cell line, L6 (ATCC Cat #[…]), was used to test the effect of these GCS inhibitors on rodent GCS enzyme.
GCS activity was evaluated using a GCS enzyme assay derived from MDCK or L6 cell lysates.
MDCK or L6 cell lysates were prepared using M-PER in the presence of a protease inhibitor cocktail. Each 100 mm dish (100% confluent) was lysed with 250 μl of M-PER containing protease inhibitors. Protein concentration was determined using Pierce BCA protein assay kit.
Sixty micrograms of MDCK lysate was incubated with various concentrations of compounds (0.00001 μM-1 μM) in 100 mM Tris buffer (pH 7.5) containing 10 mM MgCl2, 1 mM dithiothreitol, 1 mM EGTA, 2 mM NAD, 100 μM UDP-glucose, 10 μM C6-NBD-ceramide with 35 μM dioleoylphosphatidylcholine/5 μM sulfatide in a final reaction volume of 100 μl at 37° C. for 1 hour. The final concentration of DMSO was 0.1% in both compound treated and DMSO only treated samples. Each individual reaction was terminated with 11 volumes of methanol:acetonitrile (6:5; containing 200 ng/ml Tolbutamide as internal control). After sufficient mixing, reactions were centrifuged at 2000 rpm for 10 mins, supernatant was injected into the LC-MS/MS for analysis.
For the assay with L6 cell lysate, different amounts of L6 cell lysate were used.
The quantitative analysis of C6-NBD-glucosylceramide was performed on a Shimadzu ultra-fast liquid chromatography coupled with API 4000 mass spectrometer. Analyst 1.5 software packages were used to control the LC-MS/MS system, as well as for data acquisition and processing.
The C6-NBD-glucosylceramide reading was normalized first by dividing the peak area of C6-NBD-glucosylceramide with the peak area of the internal standard, and then the amount was calculated according to the standard curve generated in the same assay run. For the cell based assay results, the amount of C6-NBD-glucosylceramide was also normalized by the protein concentration of the cell samples.
To confirm the inhibitory activity of test compounds on GCS from different species, cells from rat were used. First, the presence of GCS activity was verified using various amounts of L6 cell lysate (FIG. 34, Table 26).

O=C(N[C@H](CN1CCCC1)[C@H](O)c1ccc(OC2CC2)c(Cl)c1)/C(=N/O)c1ccc2cc(Cl)ccc2c1 [Crystalline Form A of Compound 1]
C6-NBD-Ceramide (Normalized to internal control) (30 μg L6 lysate/reaction): 6.69 and 6.31 | C6-NBD-Glucosylceramide Concentration (30 μg L6 lysate/reaction): 9.73 nM and 10.5 nM | Inhibition (30 μg L6 lysate/reaction): 98.57% and 98.45% | inhibition at 0.1 µM (30 μg L6 lysate/reaction): > 98% | C6-NBD-Ceramide (Normalized to internal control) (60 μg L6 lysate/reaction): 5.87 and 6.17 | C6-NBD-Glucosylceramide Concentration (60 μg L6 lysate/reaction): 22.5 nM and 26.3 nM | Inhibition (60 μg L6 lysate/reaction): 97.64% | inhibition at 0.1 µM (60 μg L6 lysate/reaction): 98% | C6-NBD-Ceramide (Normalized to internal control) (120 μg L6 lysate/reaction): 6.09 and 6.11 | C6-NBD-Glucosylceramide Concentration (120 μg L6 lysate/reaction): 45.8 nM and 44.7 nM | Inhibition (120 μg L6 lysate/reaction): 96.74% | inhibition at 0.1 µM (120 μg L6 lysate/reaction): 96.7% | C6-NBD-Ceramide (Normalized to internal control) (180 μg L6 lysate/reaction): 5.15 and 5.12 | C6-NBD-Glucosylceramide Concentration (180 μg L6 lysate/reaction): 54.7 nM and 59.0 nM | Inhibition (180 μg L6 lysate/reaction): 95.55% | inhibition at 0.1 µM (180 μg L6 lysate/reaction): 95.9% | C6-NBD-Ceramide (Normalized to internal control) (240 μg L6 lysate/reaction): 5.72 and 5.61 | C6-NBD-Glucosylceramide Concentration (240 μg L6 lysate/reaction): 76.9 nM and 78.2 nM | Inhibition (240 μg L6 lysate/reaction): 93.51% | inhibition at 0.1 µM (240 μg L6 lysate/reaction): 93.6%
